We go through 9 molecules from patent US4044043A, “Derivatives of 9-oxo-13-trans-prostenoic acid esters” (American Cyanamid Company, priority 1975, dated 1977).

Test [1] deals with bronchospasms elicited by acetylcholine. Briefly: Bronchodilator Activity (Konzett Assay) against acetylcholine. The note with it: Cavia porcellus; three logarithmic cumulative intravenous doses. In kind it is in vivo, guinea pigs. As to the method: (§1) Bronchodilator activity was determined in guinea pigs against bronchospasms elicited by intravenous injections of 5-hydroxytryptamine, histamine or acetylcholine by the Konzett procedure. [See J. Lulling, P. Lievens, F. El Sayed and J. Prignot, Arzeneimittel-Forschung, 18, 995 (1968)]. In Table IIIC which follows bronchodilator activity for representative compounds of this invention against one or more of the three spasmogenic agents is expressed as an ED50 determined from the results obtained with three logarithmic cumulative intravenous doses.

Test [2] deals with dl-PGE1-induced contraction of gerbil colon. Briefly: Inhibition of dl-PGE1-Induced Contraction of Gerbil Colon (prostaglandin antagonist action). The conditions noted are these: Meriones unguiculatus, 1 min. Type of test: cell-based, gerbils (Meriones unguiculatus). How it is done:
The compounds of this invention are also useful as antagonists of prostaglandin action and accordingly they are potentially useful as anti-inflammatory agents, and as agents for the treatment of periodontal diseases and diarrhea. Testing for prostaglandin antagonist action is carried out in the following manner. Sections of ascending colon, approximately 20 mm. long, from mature male gerbils (Meriones unguiculatus) weighing 70-80 g. were mounted in De Jalon's solution (154 mM NaCl; 5.95 mM NAHCO3; […], 5.64 mM KC and .27 mM CaCl2 in 20 ml. tissue baths) (L and K Glass Co., Lynnhurst, N.J.). The medium was continually gassed with a mixture of 95% 02 -5% CO2 and maintained at 37° C. The tissues were suspended via silk suture threads between a glass hook at the base and a model FT .03C force displacement transducer (Grass Instruments, Quincy, Massachusetts). Contractions were recorded on a Poly-Viso ® polygraph (Sanborn Co., Cambridge, Massachusetts). After mounting, tissues were allowed to stabilize 15-20 minutes during which time adjustments were made to establish and maintain a 0.5 g. resting tension on the muscle. Thereafter, test cycles of 3-5 minutes were begun and consisted of a 1 minute exposure to the potential antagonist, if called for, followed by a 1 minute exposure to the prostaglandin agonist, a 15-30 sec. washout and a recovery period of 2-2.5 minutes. […] During the washout period, the tissue was rinsed with a measured amount equalling 8 volumes of medium. Muscle relaxation was virtually complete by the end of the washout period. During preliminary tests it was noted that a final concentration of 200 ng./ml. of a racemic mixture of synthetic prostaglandin-E1 (dl-PGE1) produced maximal muscle contraction. Following stabilization, muscles were exposed 2 to 3 times to this concentration of dl-PGE1 until a consistent response was recorded. Once maximal responses were established, test cycles with potential antagonists were commenced and were followed alternately with prostaglandin-only test cycle. […] The contraction of the muscle induced by 200 ng./ml. dl-PGE1 following exposure to a given concentration of the potential antagonist was always compared to the response of the tissue to that level of dl PGE1 in the immediately preceding cycle. Using a series of potential antagonist concentrations, an approximate ID50 (concentration at which 50% inhibition was observed) was established. The compounds were also tested against a sub-maximal prostaglandin challenge (20 ng./ml. dl-PGE1) in which case activity is reported in terms of a 50% inhibition of maximum response.

Test [3] relates to bronchospasms elicited by histamine. The test is described as follows: Bronchodilator Activity (Konzett Assay) against histamine. Type of test: in vivo, guinea pigs. The note with it: Cavia porcellus; three logarithmic cumulative intravenous doses. How it is done:
as §1

Test [4] concerns bronchospasms elicited by 5-hydroxytryptamine. Briefly: Bronchodilator Activity (Konzett Assay) against 5-hydroxytryptamine. Type of test: in vivo, guinea pigs. The note with it: Cavia porcellus; three logarithmic cumulative intravenous doses. As to the method: as §1
Test [5] deals with Mycobacterium smegmatis ATCC 606. Briefly: agar-dilution streak-plate antimicrobial assay. The note with it: Mycolicibacterium smegmatis, ATCC606, read-out: Minimal inhibitory conc. (6). Type of test: cell-based. How it is done: (§2) The novel compounds of the present invention are also useful as antimicrobial agents. […] In this assay, the compounds to be tested are made up to contain 2.5 mg. of test compound per milliliter of solution. Observing sterile techniques, two-fold serial dilution are made of each test solution. One milliliter of each of the original solutions and of each of the serial dilutions is then added to 9 ml. of warm sterile nutrient agar capable of supporting growth of the bacterial test cultures. A second set of agar dilutions is prepared identical to the first except that the nutrient agar is designed to support the growth of the fungal test cultures. […] The test bacteria and yeast-like fungi are prepared for use by growing in broth overnight. The spores of the filamentous fungi are harvested from mature agar slant cultures and are suspended in sterile physiological saline solution. A loopful of each of the resulting live suspensions is then, still employing sterile techniques, streaked upon the surfaces of each of the agar plates and the resulting streaked plates are then incubated. After an appropriate period of time, each of the streaks on each of the plates is inspected visually and the extent, if any, of bacterial or fungal growth is noted. The minimal inhibitory concentration (expressed in micrograms per milliliter) is defined as the concentration of test compound causing complete inhibition of growth of any particular organism. In a representative operation, and merely by way of illustration, the minimal inhibitory concentration of typical compounds of the present invention against a variety of test organisms as determined in the above-described assay are set forth in Tables II and III below: […]

In test [6] the test system is Trichophyton tonsurans NIH 662. The test is described as follows: agar-dilution streak-plate antimicrobial assay. Type of test: cell-based. The conditions noted are these: NIH662, read-out: Minimal inhibitory conc. (3). As to the method: as §2
The subject of a further test is diastolic blood pressure. The test is described as follows: Prostaglandin-like hypotensive activity in anesthetized rats (minimal dose for about 10 mm. decrease in diastolic blood pressure). Type of test: in vivo, Male Wistar strain rats. The conditions noted are these: Rattus norvegicus; intravenous; decrease of about 10 mm. in diastolic blood pressure. How it is done:
This procedure is a modification of the technique described by Pike et al., Prostaglandins, Nobel Symposium 2, Stockholm, June, 1966; p, 165.
Male Wistar strain rats (Royal Hart Farms) averaging approximately 250 grams in weight were fastened to rat boards in a supine position by means of canvas vests and limb ties. The femoral area was infiltrated subcutaneously with lidocaine and the iliac artery and vein exposed and cannulated. Arterial blood pressure (systolic/diastolic) was recorded using a Statham P23 Db pressure transducer-Offner dynograph system. To obtain a stable blood pressure, the animals were anesthetized before use with pentobarbital, 30 mg./kg. of body weight intravenously, and also were given hexamethonium bitartrate, 2 mg./kg. of body weight intravenously. The test compounds were prepared by ultrasonic dispersion in a saline-Tween 80 ® vehicle. A constant intravenous dose volume of 0.5 ml. was administered and test doses ranged from 0.1 to 10.0 mg./kg. of body weight. Increasing or decreasing doses were selected depending on the dose response obtained. In Table I below are set forth the minimal doses required to produce a decrease of about 10 mm. in diastolic blood pressure for typical compounds of the present invention.

The next test deals with gastric acid secretion. Briefly: Inhibition of Gastric Acid Secretion (Pylorous-Ligated Rat), Shay rat procedure. In kind it is in vivo, rats (male, CFE strain). The conditions noted are these: read-out: % Inhibition of Control Gastric Acid Secretion; for inhibition in vivo at 100 mg/kg: 100 mg./kg. intraduodenal. An excerpt:
The novel compounds of the present invention are also effective inhibitors of gastric acid secretion and of ulcer development in experimental animals, and thus are potentially valuable as agents for the control of gastric acid secretion and of gastric erosion and as anti-ulcer agents. Gastric acid secretion inhibitory action is usually measured by the Shay rat procedure ^(1,2) with some modifications as follows. 6 1. Shay et al., Gastroenterology, 5, 43 (1945). 6 2. Shay et al., Gastroenterology, 26, 906 (1954).
The rats (male, CFE strain) were starved for 48 hours (water was given ad libitum) to permit evacuation of stomach contents. On the morning of the experiment, under ether anesthesia, the abdominal region was shaved and a midline incision (1-1 1/2 inch) was made with a scalpel. With the help of a closed curved hemostat the duodenum was picked up. Upon getting the duodenum into view fingers were used to pull the stomach through the opening, the stomach was then gently manipulated with fingers to rid stomach of air and residual matter which were pushed through the pylorus. Two 5-inch sutures were drawn under the pyloric-duodenal puncture. A ligature, at the juncture, was formed with one of the threads. The second ligature was also formed but not tightened.
The test compound or the vehicle, usually 1 ml./100 g. body weight, were injected into the duodenum as close as possible to the first ligature. After injection the second ligature was tightened below the injection site to minimize leakage. The stomach was placed back through the opening into the abdominal cavity, the area of incision was washed with saline and the incision was closed with autoclips. (Ocasionally instead of an intraduodenal injection, animals were dosed by the oral or subcutaneous route. In the latter case, dosing was done thirty to sixty minutes before the operation).
The abdominal cavity was exposed by cutting with scissors and the esophagus close to the stomach was clamped off with a hemostat, the stomach was removed by cutting above the hemostat (the esophagus was cut) and between the two sutures. Extraneous tissue was removed, the stomach washed with saline and blotted on gauze. A slit was carefully made in the stomach which was held over a funnel and the contents were collected in a centrifuge tube. The stomach was further cut along the outside edge and turned inside out. Two ml. of water were used to wash the stomach contents into the respective centrifuge tube. The combined stomach contents and wash were then centrifuged out for 10 minutes in the International Size 2 Centrifuge (setting at 30). The supernatant was collected, volume measured and recorded, 2 drops of phenolphthalein indicator (1% in 95% ethanol) were added and the solution was titrated with 0.02N NaOH (or with 0.04N NaOH when large volumes of stomach contents were encountered) to pH 8.4 (because of usual coloring of the stomach contents, phenolphthalein was only used to permit visual indication that the end point was near) and the amount of acid present was calculated.
Compounds inducing inhibition of gastric acid secretion of 20% or more were considered active. In a representative operation, and merely by way of illustration, the results obtained with this assay with typical compounds of the present invention are given in Table IIIA.

Where [7] appears, read: 200 ng./ml. dl-PGE1, read-out: ID50 vs. 200 ng. of PGE1/ml.
The mark [8] stands for this setting: sub-maximal challenge, 20 ng./ml. dl-PGE1, 50% inhibition of maximum response, read-out: ID50 vs. 20 ng. of PGE1/ml.

In brackets after ≈: the same amount, converted by molar mass. Read-outs that look alike come from different tables or passages of the source.

As for `CCCCCC/C=C/[C@H]1CCC(=O)[C@@H]1CCCCCC(CC)C(=O)O` (stereo partly drawn) [9-oxo-2-ethyl-13-trans-prostenoic acid, 2-ethyl-9-oxo-13-trans-prostenoic acid], the median effective dose (ED50) was greater than 10 mg/kg in test [1], 7.75 mg/kg in test [3] and 2.91 mg/kg in test [4]. Besides, the IC50 in test [2] (setting [7]) was 15 µg/mL (≈ 42.8 µM); in test [2] (setting [8]) it was 4 to 5 µg/mL (≈ 11.4 to 14.3 µM).

In the case of `CCCCCC/C=C/[C@@H]1CCC(=O)[C@H]1CCCCSCC(=O)O` (relative stereo) [9-oxo-3-thia-13-trans-prostenoic acid], the figures for the ED50 in test [1], in test [3] and in test [4] were 2.43 mg/kg, 1.24 mg/kg and 1.56 mg/kg, respectively. For the same molecule, in test [2] (setting [7]), the IC50 amounted to 20 µg/mL (≈ 58.7 µM).

With `CCCCCC/C=C/[C@@H]1CCC(=O)[C@H]1C/C=C\CCCC(=O)O` (relative stereo) [9-oxo-5-cis,13-trans-prostadienoic acid, 9-oxo-5-cis-13-trans-prostadienoic acid], the ED50 was determined as 4.36 mg/kg in test [1], 1.42 mg/kg in test [3] and 1.5 mg/kg in test [4]. In addition, the IC50 stood at 9 µg/mL (≈ 28.1 µM) in test [2] (setting [7]) and 0.9 µg/mL (≈ 2.81 µM) in test [2] (setting [8]).

As for `CCCCCCCCCC/C=C/[C@H]1CCC(=O)[C@@H]1CCCCCCC(=O)OCC` (relative stereo) [ethyl 20-butyl-9-oxo-13-trans-prostenoate], the MIC in test [5] and in test [6] was 250 µg/mL (≈ 615 µM) each time. Moreover, the minimal effective dose in the test with diastolic blood pressure came out at 10 mg/kg.

On to `CCCCCC/C=C/[C@@H]1CCC(=O)[C@H]1CCCCC(C)(C)CC(=O)O` (relative stereo) [3,3-dimethyl-9-oxo-13-trans-prostenoic acid], for which the median effective dose (ED50) in test [1] is greater than 10 mg/kg; in test [3], 5.1 mg/kg; in test [4], 12 mg/kg. For the same molecule, the IC50 is 3 to 5 µg/mL (≈ 8.56 to 14.3 µM) in test [2] (setting [7]) and 1 µg/mL (≈ 2.85 µM) in test [2] (setting [8]). Also, in the test on gastric acid secretion (200 mg./kg. intraduodenal), the inhibition in vivo at 200 mg/kg turned out to be 72%.

Consider `CCCC=CC1CCC(=O)C1CCCCCC(F)C(=O)O` (stereo not drawn) [9-oxo-2-fluoro-18,19,20-trinor-13-trans-prostenoic acid], for which the ED50 is greater than 10 mg/kg in test [1], 6.35 mg/kg in test [3] and 8.36 mg/kg in test [4]. Moreover, in test [2] (setting [7]), the IC50 fell in the range of 25 to 30 µg/mL (≈ 83.8 to 101 µM).

Turning to `CCCC/C=C/[C@H]1CCC(=O)[C@@H]1CCCCCCC(=O)O` (relative stereo) [9-oxo-19,20-dinor-13-trans-prostenoic acid], the 50% effective dose (ED50) in test [1] turned out to be 5.28 mg/kg; in test [3], 0.715 mg/kg; in test [4], 2.16 mg/kg. Also, in test [2] (setting [8]), the IC50 is 1 to 2 µg/mL (≈ 3.4 to 6.79 µM). Moreover, the inhibition in vivo at 50 mg/kg in the test with gastric acid secretion (50 mg./kg. intraduodenal) worked out at 37%. Also, the inhibition in vivo at 100 mg/kg with gastric acid secretion was 77%.

As to `CCCCCC/C=C/[C@@H]1CCC(=NO)[C@H]1CCCCCCC(=O)O` (relative stereo) [9-oxo-13-trans-prostenoic acid 9-oxime, 9-Oxo-13-trans-prostenoic acid oxime], the ED50 in test [1] came to 12.5 mg/kg; in test [3], 23.1 mg/kg; in test [4], 30 mg/kg. Further, the IC50 in test [2] (setting [8]) lay in the range of 1 to 2 µg/mL (≈ 2.96 to 5.93 µM). The inhibition in vivo at 100 mg/kg with gastric acid secretion was found to be 39%.

Consider `CCCCCC/C=C/[C@@H]1CCC(=O)[C@H]1CCCCOCC(=O)O` (relative stereo) [9-oxo-3-oxa-13-trans-prostenoic acid], for which the ED50 in test [1] was determined as 5.24 mg/kg; in test [3], 0.67 mg/kg; in test [4] it was 0.895 mg/kg. The IC50 in test [2] (setting [7]) came out at 20 µg/mL (≈ 61.6 µM). Moreover, the inhibition in vivo at 100 mg/kg in the test with gastric acid secretion came out at 90%.
